Data on eleven compounds can be found in patent US4062862A, “5-Benzyl-2-oxazolidone derivatives and a process for producing the same” (Nippon Chemiphar Co., Ltd., priority 1975, dated 1977).

As usually defined, the ED50 is the dose that gives a 50% effect, or the effect in half of the subjects. Low values mean greater potency, high ones weaker potency.

Assay [1] deals with mice. Put plainly: Muscular relaxing effect, Righting Reflex Test (R.r), oral, mice. It counts as in vivo, dd Male mice. The note with it: Mus musculus; for responders at 500 mg/kg: read-out: Inhibition percent of the central muscular relaxing effect, R.r (Righting Reflex Test). Here is the method: (§1) dd Male mice weighing 18 to 22 g, one group consisting of 10 animals, were orally given the compounds (I) to (V) as indicated below suspended in 0.2% carboxymethylcellulose solution in a dose of 0.25ml/10g-body weight. Mephenesin was used as active placebo.

Assay [2] deals with mice. Put plainly: Muscular relaxing effect, Corneal Reflex Test (C.r), oral, mice. The settings on record: Mus musculus; for responders at 500 mg/kg: read-out: Inhibition percent of the central muscular relaxing effect, C.r (Corneal Reflex Test). The class given is in vivo, dd Male mice. As for the experimental part: as §1
Corneal reflex was observed by using mandolin wire for 1/4 injection syringe.

The subject of assay [3] is mice. The assay is described as follows: Muscular relaxing effect, Inclined Plane Test (I.P), oral, mice. The settings on record: Mus musculus; for responders at 500 mg/kg: read-out: Inhibition percent of the central muscular relaxing effect, I.P (Inclined Plane Test). It counts as in vivo, dd Male mice. Here is the method: as §1
Mice were placed on veneer inclined at an angle of 30° and on wire-netting inclined at an angle of 60° of which one division is 5 mm square, and mice sliding down were observed as positive, in comparison with normal behavior.

The test system of assay [4] is mice. The assay is described as follows: Muscular relaxing effect, Rotarod Method (R.R), oral, mice. The class given is in vivo, dd Male mice. The note with it: Mus musculus; for responders at 500 mg/kg: read-out: Inhibition percent of the central muscular relaxing effect, R.R (Rotarod Method). Here is the method: as §1
Mice were placed on Rotar Load (made by Natsume Seisakusho Co., Ltd.) having a diameter of 3 cm rotating at a speed of 10 rpm and falling (occurring within 3 minutes) was observed.
Background: The rotarod test checks motor coordination on a turning rod.

The subject of assay [5] is mice. Put plainly: Muscular relaxing effect, Traction Test (T.T), oral, mice. The class given is in vivo, dd Male mice. The settings on record: Mus musculus; for responders at 500 mg/kg: read-out: Inhibition percent of the central muscular relaxing effect, T.T (Traction Test). Here is the method: as §1
In assay [6] the test system is mice. Put plainly: Muscular relaxing effect, Pinna Reflex Test (P.r), oral, mice. The settings on record: Mus musculus; for responders at 500 mg/kg: read-out: Inhibition percent of the central muscular relaxing effect, P.r (Pinna Reflex Test). It counts as in vivo, dd Male mice. As for the experimental part: as §1
Pinna reflex was observed by using mandolin wire for 1/4 injection syringe.

In assay [7] the test system is carrageenan-induced edema in rats. The assay is described as follows: Antiinflammatory effect on carrageenan-induced edema. It counts as in vivo, Wistar male rats. As for the experimental part: […] One hour after the administration of the test compounds, the hind paw was given a subcutaneous injection of 0.05ml of 0.5% carrageenan saline solution, and volume of the hind paw was measured at 1, 2, 3, 4, 5 and 6 hours after the injection of carrageenan by a volume differential meter. Inhibitory percent was calculated based on the swelling in the control. Phenybutazone was used as active placebo.

In assay [8] the test system is pain threshold in mice. Put plainly: Analgetic effect, Pressure Test (pain threshold, tail pressure). The class given is in vivo, dd Male mice. The settings on record: 100 mg/kg oral. As for the experimental part: dd Male mice weighing 18 to 22 g (pain threshold ranging within 30 to 50 mmHg), one group consisting of 10 animals, were given orally the test compounds suspended in 0.2% carboxymethylcellulose solution in a dose of 100mg/kg-body weight. Pain threshold were measured at 30, 60, 90 and 120 minutes after the administration of the test compounds while pain reaction occurring by application of pressure on tails of animals was referred to as indication. Aminopyrine was used as active placebo.

[9] abbreviates: Table 1, oral, mice, maximum response 15-180 min, Litchfield Wilcoxon.

Take `O=C1NCC(Cc2ccc(F)cc2)O1` (stereo not drawn) [Compound XI, 5-(p-fluorobenzyl)-2-oxazolidone]: the responders at 500 mg/kg in assay [1] (Table 2, 500 mg/kg, oral, mice) was found to be 10%. Besides, in assay [2] (Table 2, 500 mg/kg, oral, mice), the responders at 500 mg/kg turned out to be 0%. For the same compound, in assay [3] (Table 2, 500 mg/kg, oral, mice), the responders at 500 mg/kg turned out to be 80%. The responders at 500 mg/kg in assay [4] (Table 2, 500 mg/kg, oral, mice) came to 100%. Also, the responders at 500 mg/kg in assay [5] (Table 2, 500 mg/kg, oral, mice) came to 90%. Moreover, the responders at 500 mg/kg in assay [6] (Table 2, 500 mg/kg, oral, mice) worked out at 60%. Further, in assay [7] (Table 6, 200 mg/kg oral), the “Inhibitory per cent, carrageenan-induced edema, 1 hr” value (“Inhibitory per cent … 1 hr” for short) is recorded as 38.3 per cent; the “Inhibitory per cent, carrageenan-induced edema, 2 hrs.” value (from here on “Inhibitory per cent … 2 hrs.”) stood at 47.5 per cent; the “Inhibitory per cent, carrageenan-induced edema, 3 hrs.” value (“Inhibitory per cent … 3 hrs.” below) was 44.5 per cent; the “Inhibitory per cent, carrageenan-induced edema, 4 hrs.” value (“Inhibitory per cent … 4 hrs.” below) is listed as 34.4 per cent. Moreover, in assay [7] (Table 6, 200 mg/kg oral), the “Inhibitory per cent, carrageenan-induced edema, 5 hrs.” value (shortened to “Inhibitory per cent … 5 hrs.”) is 9.2 per cent and the “Inhibitory per cent, carrageenan-induced edema, 6 hrs.” value (“Inhibitory per cent … 6 hrs.” for short) is given as 8.9 per cent.

On to `CCc1ccccc1CC1CNC(=O)O1` (stereo not drawn) [Compound VI, 5-(o-ethylbenzyl)-2-oxazolidone], for which the responders at 500 mg/kg in assay [1] (Table 2, 500 mg/kg, oral, mice) came to 10%; in assay [2] (Table 2, 500 mg/kg, oral, mice), 0%; in assay [3] (Table 2, 500 mg/kg, oral, mice), 50%; in assay [4] (Table 2, 500 mg/kg, oral, mice), 60%; in assay [5] (Table 2, 500 mg/kg, oral, mice) it was 40%; in assay [6] (Table 2, 500 mg/kg, oral, mice), 10%. Moreover, the “Inhibitory per cent … 1 hr” value in assay [7] (Table 6, 100 mg/kg oral) stood at 27.8 per cent. The “Inhibitory per cent … 2 hrs.” value in assay [7] (Table 6, 100 mg/kg oral) came to 36.3 per cent. Further, the “Inhibitory per cent … 3 hrs.” value in assay [7] (Table 6, 100 mg/kg oral) stood at 53.6 per cent. Moreover, the “Inhibitory per cent … 4 hrs.” value in assay [7] (Table 6, 100 mg/kg oral) is on record as 28.9 per cent. In assay [7] (Table 6, 100 mg/kg oral), the “Inhibitory per cent … 5 hrs.” value came to 22.0 per cent. For the same compound, the “Inhibitory per cent … 6 hrs.” value in assay [7] (Table 6, 100 mg/kg oral) came to 17.4 per cent.

For the compound `O=C1NCC(Cc2ccccc2F)O1` (stereo not drawn) [XIII, 5-(o-fluorobenzyl)-2-oxazolidone], the “Pain threshold Increase Ratio” value in assay [8] was 1.13. In addition, in assay [8] (30 min, *p <0.05, **p <0.01, ***p <0.001), the “Pain threshold, Mean ± SE, 30 min” value was 52.1 ± 3.4 mmHg. In addition, the “Pain threshold, Mean ± SE, 60 min” value in assay [8] (60 min, *p <0.05, **p <0.01, ***p <0.001) is 53.7 ± 2.6 mmHg. Moreover, the “Pain threshold, Mean ± SE, 90 min” value in assay [8] (90 min, *p <0.05, **p <0.01, ***p <0.001) was 50.4 ± 2.8 mmHg. Moreover, the “Pain threshold, Mean ± SE, 120 min” value in assay [8] (120 min, *p <0.05, **p <0.01, ***p <0.001) was found to be 47.3 ± 1.8 mmHg. The responders at 500 mg/kg is 20% in assay [1] (Table 2, 500 mg/kg, oral, mice); 10% in assay [2] (Table 2, 500 mg/kg, oral, mice); 50% in assay [3] (Table 2, 500 mg/kg, oral, mice); 90% in assay [4] (Table 2, 500 mg/kg, oral, mice); 70% in assay [5] (Table 2, 500 mg/kg, oral, mice); 0% in assay [6] (Table 2, 500 mg/kg, oral, mice).

Take `NC(=O)OCCCc1ccccc1` [GP, γ-phenylpropylcarbamate, reference compound]: the responders at 500 mg/kg in assay [1] (po) came out at 0%; in assay [2] (po), 0%; in assay [3] (po), 30%; in assay [4] (po) it was 60%; in assay [5] (po), 40%; in assay [6] (po), 10%.

In the case of `O=C1NCC(Cc2ccccc2-c2ccccc2)O1` (stereo not drawn) [Compound XIV, 5-(o-phenylbenzyl)-2-oxazolidone], in assay [7] (Table 6, 100 mg/kg oral), the “Inhibitory per cent … 1 hr” value came to 12.9 per cent; the “Inhibitory per cent … 2 hrs.” value is 35.2 per cent; the “Inhibitory per cent … 3 hrs.” value came to 40.0 per cent; the “Inhibitory per cent … 4 hrs.” value stood at 15.6 per cent. In addition, in assay [7] (Table 6, 100 mg/kg oral), the “Inhibitory per cent … 5 hrs.” value is reported as 9.1 per cent.

For `CCCCC1C(=O)N(c2ccccc2)N(c2ccccc2)C1=O` [Phenylbutazone, reference compound], in assay [7] (Table 5, 200 mg/kg oral), the “Inhibitory per cent … 3 hrs.” value was 76.6 per cent and the “Inhibitory per cent … 6 hrs.” value was 45.1 per cent. Further, in assay [7] (Table 6, 100 mg/kg oral), the “Inhibitory per cent … 1 hr” value was found to be 59.1 per cent; the “Inhibitory per cent … 2 hrs.” value turned out to be 54.6 per cent; the “Inhibitory per cent … 3 hrs.” value worked out at 59.7 per cent; the “Inhibitory per cent … 4 hrs.” value came out at 68.2 per cent. For the same compound, in assay [7] (Table 6, 100 mg/kg oral), the “Inhibitory per cent … 5 hrs.” value was determined as 63.4 per cent and the “Inhibitory per cent … 6 hrs.” value came out at 52.6 per cent.

Regarding `C=CCOc1ccccc1CC1CNC(=O)O1` (stereo not drawn) [Compound X, 5-(o-allyloxybenzyl)-2-oxazolidone], the responders at 500 mg/kg in assay [1] (Table 2, 500 mg/kg, oral, mice) was found to be 30%; in assay [2] (Table 2, 500 mg/kg, oral, mice) it was 0%; in assay [3] (Table 2, 500 mg/kg, oral, mice), 40%; in assay [4] (Table 2, 500 mg/kg, oral, mice), 80%; in assay [5] (Table 2, 500 mg/kg, oral, mice) it was 40%; in assay [6] (Table 2, 500 mg/kg, oral, mice) it was 40%.

On to `O=C1NCC(Cc2cccc(C(F)(F)F)c2)O1` (stereo not drawn) [IX, 5-(m-trifluoromethylbenzyl)-2-oxazolidone], for which the responders at 500 mg/kg in assay [1] (Table 2, 500 mg/kg, oral, mice) is 0%. The responders at 500 mg/kg in assay [2] (Table 2, 500 mg/kg, oral, mice) turned out to be 0%. The responders at 500 mg/kg in assay [3] (Table 2, 500 mg/kg, oral, mice) came out at 60%. Further, in assay [4] (Table 2, 500 mg/kg, oral, mice), the responders at 500 mg/kg came to 90%. The responders at 500 mg/kg in assay [5] (Table 2, 500 mg/kg, oral, mice) is 60%. Also, the responders at 500 mg/kg in assay [6] (Table 2, 500 mg/kg, oral, mice) is 60%. Also, in assay [7] (Table 6, 200 mg/kg oral), the “Inhibitory per cent … 1 hr” value is given as 45.0 per cent; the “Inhibitory per cent … 2 hrs.” value came to 49.4 per cent; the “Inhibitory per cent … 3 hrs.” value is 20.8 per cent; the “Inhibitory per cent … 4 hrs.” value came out at 11.3 per cent. Moreover, in assay [7] (Table 6, 200 mg/kg oral), the “Inhibitory per cent … 5 hrs.” value is given as 14.5 per cent and the “Inhibitory per cent … 6 hrs.” value is listed as 11.5 per cent.

Consider `CCc1ccc(CC2CNC(=O)O2)cc1` (stereo not drawn) [VII, 5-(p-ethylbenzyl)-2-oxazolidone], for which the responders at 500 mg/kg in assay [1] (Table 2, 500 mg/kg, oral, mice) worked out at 0%; in assay [2] (Table 2, 500 mg/kg, oral, mice), 0%; in assay [3] (Table 2, 500 mg/kg, oral, mice), 40%; in assay [4] (Table 2, 500 mg/kg, oral, mice), 80%; in assay [5] (Table 2, 500 mg/kg, oral, mice), 40%; in assay [6] (Table 2, 500 mg/kg, oral, mice) it was 0%.

In the case of `O=C1NCC(Cc2ccccc2Oc2ccccc2)O1` (stereo not drawn) [Compound XV, 5-(o-phenoxybenzyl)-2-oxazolidone], in assay [7] (Table 6, 100 mg/kg oral), the “Inhibitory per cent … 1 hr” value was found to be 59.5 per cent; the “Inhibitory per cent … 2 hrs.” value is listed as 57.1 per cent; the “Inhibitory per cent … 3 hrs.” value was 59.9 per cent; the “Inhibitory per cent … 4 hrs.” value is given as 30.8 per cent. In addition, in assay [7] (Table 6, 100 mg/kg oral), the “Inhibitory per cent … 5 hrs.” value was 26.1 per cent and the “Inhibitory per cent … 6 hrs.” value was determined as 23.2 per cent.

Take `Cc1ccccc1OCC(O)CO` (stereo not drawn) [Mephenesin, reference compound]: the ED50 in assay [1] (setting [9]) was 640 mg/kg; in assay [2] (setting [9]), 680 mg/kg; in assay [3] (setting [9]) it was 470 mg/kg; in assay [4] (setting [9]), 268 mg/kg; in assay [5] (setting [9]), 460 mg/kg; in assay [6] (setting [9]) it was 420 mg/kg. Besides, the responders at 500 mg/kg in assay [1] (Table 2, 500 mg/kg, oral, mice) was determined as 20%; in assay [2] (Table 2, 500 mg/kg, oral, mice) it was 0%; in assay [3] (Table 2, 500 mg/kg, oral, mice) it was 60%; in assay [4] (Table 2, 500 mg/kg, oral, mice) it was 80%; in assay [5] (Table 2, 500 mg/kg, oral, mice), 40%; in assay [6] (Table 2, 500 mg/kg, oral, mice), 20%.
